Tests used:
[1] = target: T1, IRAK1 (Homo sapiens, UniProt P51617); assay: RBC HotSpot Kinase Assay, IRAK1; format: biochemical; conditions: isolated kinase, 33P-ATP
T1 construct: purchased Reaction Biology (RBC), HotSpot kinase assay
From the text: (§1) This assay uses the isolated kinase enzyme. This assay is very useful for determining competition of the inhibitor for ATP and/or substrates and for measuring the kinetics of enzyme inhibition. […] Unlike kinase binding assays that measure competition for ATP, the HotSpot Kinase Assay is a functional assay that measures catalytic activity; as such it measures relative functional potency regardless of the mechanism of enzyme inhibition. This assay uses the form of the various enzymes that are easiest to express, which may not necessarily be the form of the enzyme that exist in the cell. (Sometimes the carboxy terminus has been truncated to aid in expression, or, if it is a receptor kinase, the enzyme itself is isolated from the other parts of the receptor that are involved in regulating kinase activity.)
(§2) The reagent used was as follows: Base Reaction buffer; 20 mM Hepes (pH 7.5), 10 mM MgCl2, 1 mM EGTA, 0.01% Brij35, 0.02 mg/ml BSA, 0.1 mM Na3VO4, 2 mM DTT, 1% DMSO. Required cofactors were added individually to each kinase reaction.
(§3) The reaction procedure was as follows: • 1) Substrates were prepared in freshly prepared Reaction Buffer. • 2) Any required cofactors were delivered to the substrate solution above. • 3) Kinase was delivered into the substrate solution and gently mixed. • 4) Compounds were delivered in 100% DMSO into the kinase reaction mixture by Acoustic technology (Echo550; nanoliter range), followed by incubation for 20 min at room temp. • 5)^33P-ATP was delivered into the reaction mixture to initiate the reaction. • 6) The mixture was incubated for 2 hours at room temperature. • 7) Kinase activity was detected by P81 filter-binding method.

[2] = tested on: MOLM14 D835Y cells; assay: MOLM14 D835Y cell viability assay (Cell Titer Glo); format: cell-based; conditions: Homo sapiens, MOLM-14, 48 h
Protocol: Both cell lines have activated FLT3 receptors, each of which carry additional resistance mutations in the kinase domain (D835Y and F691L, respectively).
MOLM14 D835Y and MOLM14 F691L cells were grown in RPMI-1640 media supplemented with 20% fetal bovine serum (FBS). For viability/cytotoxicity assessments, cells were seeded into 1536-well white polystyrene tissue culture-treated Greiner plates using a Multidrop Combi dispenser (ThermoFisher), in final volume 5 μL of growth media per well, at a density of 1000 cells per well. After cell addition, 23 nL of test compound were transferred into individual wells (22 doses tested for each test compound, with a 1:2 dilution series starting at 10 μM) via a 1536 pin-tool. Bortezomib (final concentration 2.3 μM) was used as a positive control for cell cytotoxicity. Plates were incubated for 48 hours at standard incubator conditions covered by a stainless steel gasketed lid to prevent evaporation. 48 hours post compound addition, 3 μL of Cell Titer Glo (Promega) were added to each well and plates were incubated at room temperature for 15 minutes with the stainless-steel lid in place. Luminescence readings were taken using a Viewlux imager (PerkinElmer) with a 2 second exposure time per plate.

[3] = target: T2, IRAK4 (Homo sapiens, UniProt Q9NWZ3); assay: RBC HotSpot Kinase Assay, IRAK4; format: biochemical; parameters: purchased Reaction Biology (RBC), HotSpot kinase assay; conditions: isolated kinase, 33P-ATP
T2 sequence (Q9NWZ3 1-460): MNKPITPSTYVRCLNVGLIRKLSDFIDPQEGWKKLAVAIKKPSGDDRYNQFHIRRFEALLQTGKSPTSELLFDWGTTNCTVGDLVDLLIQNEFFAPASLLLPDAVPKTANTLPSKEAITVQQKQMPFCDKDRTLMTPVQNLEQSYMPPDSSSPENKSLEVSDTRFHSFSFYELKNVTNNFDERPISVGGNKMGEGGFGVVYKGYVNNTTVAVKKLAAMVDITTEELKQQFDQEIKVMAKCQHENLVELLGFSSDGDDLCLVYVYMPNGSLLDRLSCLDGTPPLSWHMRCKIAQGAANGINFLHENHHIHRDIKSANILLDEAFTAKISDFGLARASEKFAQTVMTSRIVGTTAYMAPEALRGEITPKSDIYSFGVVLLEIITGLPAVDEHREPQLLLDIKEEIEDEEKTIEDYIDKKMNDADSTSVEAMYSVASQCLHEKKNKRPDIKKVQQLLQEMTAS
From the text: as §1, §2, §3

[4] = target: T3, FLT3 (Homo sapiens, UniProt P36888); assay: RBC HotSpot Kinase Assay, FLT3; format: biochemical; parameters: purchased Reaction Biology (RBC), HotSpot kinase assay; conditions: isolated kinase, 33P-ATP
T3 sequence (P36888 27-993): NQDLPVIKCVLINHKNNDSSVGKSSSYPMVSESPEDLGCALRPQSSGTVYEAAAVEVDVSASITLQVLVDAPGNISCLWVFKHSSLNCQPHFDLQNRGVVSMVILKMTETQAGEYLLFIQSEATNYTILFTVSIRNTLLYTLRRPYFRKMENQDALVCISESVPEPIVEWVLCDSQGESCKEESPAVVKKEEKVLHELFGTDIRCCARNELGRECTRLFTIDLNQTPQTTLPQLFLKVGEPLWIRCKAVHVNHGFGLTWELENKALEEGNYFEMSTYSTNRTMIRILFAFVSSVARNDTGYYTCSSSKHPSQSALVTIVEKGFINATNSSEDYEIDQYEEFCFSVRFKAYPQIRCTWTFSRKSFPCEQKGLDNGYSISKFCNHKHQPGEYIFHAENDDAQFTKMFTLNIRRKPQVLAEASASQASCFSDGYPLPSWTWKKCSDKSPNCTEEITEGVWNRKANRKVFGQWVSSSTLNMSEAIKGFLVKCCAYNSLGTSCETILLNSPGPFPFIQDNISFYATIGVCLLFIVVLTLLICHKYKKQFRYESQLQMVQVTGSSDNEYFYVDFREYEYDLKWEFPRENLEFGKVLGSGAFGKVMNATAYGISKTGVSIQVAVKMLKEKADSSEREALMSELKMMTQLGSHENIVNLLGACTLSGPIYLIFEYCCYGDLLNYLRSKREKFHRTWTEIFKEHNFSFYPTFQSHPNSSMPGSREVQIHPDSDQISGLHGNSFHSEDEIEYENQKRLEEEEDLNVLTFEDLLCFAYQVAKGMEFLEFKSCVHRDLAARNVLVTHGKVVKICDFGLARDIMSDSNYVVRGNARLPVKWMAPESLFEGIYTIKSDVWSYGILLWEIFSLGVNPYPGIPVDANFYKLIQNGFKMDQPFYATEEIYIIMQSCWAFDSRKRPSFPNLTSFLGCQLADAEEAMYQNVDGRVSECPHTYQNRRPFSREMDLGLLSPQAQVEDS
From the text: as §1, §2, §3

T1 sequence (P51617 whole entry): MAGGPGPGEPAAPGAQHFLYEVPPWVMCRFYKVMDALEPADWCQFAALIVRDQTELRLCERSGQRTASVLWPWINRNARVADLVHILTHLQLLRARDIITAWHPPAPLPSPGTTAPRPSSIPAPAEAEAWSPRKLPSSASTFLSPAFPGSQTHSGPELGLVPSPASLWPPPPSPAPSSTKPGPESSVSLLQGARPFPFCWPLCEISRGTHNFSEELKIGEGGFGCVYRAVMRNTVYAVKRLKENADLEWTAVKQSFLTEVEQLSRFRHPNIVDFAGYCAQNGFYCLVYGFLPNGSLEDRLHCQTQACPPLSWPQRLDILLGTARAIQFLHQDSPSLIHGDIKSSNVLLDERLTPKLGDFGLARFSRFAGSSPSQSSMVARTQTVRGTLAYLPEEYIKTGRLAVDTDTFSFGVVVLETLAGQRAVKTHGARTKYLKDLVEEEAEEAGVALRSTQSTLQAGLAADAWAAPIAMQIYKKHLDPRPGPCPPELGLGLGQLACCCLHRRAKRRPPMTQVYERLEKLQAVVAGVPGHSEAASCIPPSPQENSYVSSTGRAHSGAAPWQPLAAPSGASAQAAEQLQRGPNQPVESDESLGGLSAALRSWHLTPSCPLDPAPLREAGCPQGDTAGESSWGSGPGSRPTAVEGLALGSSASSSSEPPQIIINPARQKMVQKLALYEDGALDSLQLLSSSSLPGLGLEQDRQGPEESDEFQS

Row | IC50 [1] [nM] | IC50 [2] [nM] | IC50 [3] [nM] | IC50 [4] [nM] | SMILES
1 | 301 | 15 | 3 | < 0.5 | C[C@H]1CNC[C@@H]1Nc1cccc(-c2cnc3cnc(C4(C(F)(F)F)CC4)cn23)n1 [Compound 11, N-((3R,4S)-4-methylpyrrolidin-3-yl)-6-(6-(1-(trifluoromethyl)cyclopropyl)imidazo[1,2-a]pyrazin-3-yl)pyridin-2-amine]
2 | 82 | 14 | 1 | < 0.5 | FC(F)c1cn2c(-c3cccc(N[C@@H]4CCNC4)n3)cnc2cn1 [Compound 18, (R)-6-(6-(difluoromethyl)imidazo[1,2-a]pyrazin-3-yl)-N-(pyrrolidin-3-yl)pyridin-2-amine]
3 | 273 | 42 | 1 | 0.6 | C[C@H]1CNC[C@@H]1Nc1cccc(-c2cnc3cnc(C(C)(C)O)cn23)n1 [Compound 29, 2-(3-(6-(((3R,4S)-4-methylpyrrolidin-3-yl)amino)pyridin-2-yl)imidazo[1,2-a]pyrazin-6-yl)propan-2-ol]
4 | 2290 | – | 5 | < 0.5 | CC(C)(O)Cn1cc(-c2cn3c(-c4cccc(N[C@H]5CNC[C@@H]5F)n4)cnc3cn2)cn1 [Compound 54, 1-(4-(3-(6-(((3S,4S)-4-fluoropyrrolidin-3-yl)amino)pyridin-2-yl)imidazo[1,2-a]pyrazin-6-yl)-1H-pyrazol-1-yl)-2-methylpropan-2-ol]
5 | 304 | – | < 0.5 | < 0.5 | F[C@H]1CNC[C@@H]1Nc1cccc(-c2cnc3cnc(-c4cnn5ccccc45)cn23)n1 [Compound 55, N-((3S,4S)-4-fluoropyrrolidin-3-yl)-6-(6-(pyrazolo[1,5-a]pyridin-3-yl)imidazo[1,2-a]pyrazin-3-yl)pyridin-2-amine]
6 | 840 | – | 4 | 0.7 | COc1cn2c(-c3cccc(N[C@H]4CNC[C@@H]4F)n3)cnc2cn1 [Compound 56, N-((3S,4S)-4-fluoropyrrolidin-3-yl)-6-(6-methoxyimidazo[1,2-a]pyrazin-3-yl)pyridin-2-amine]
7 | 3540 | – | 46 | 2 | CC1(C)CCN(c2cn3c(-c4cccc(N[C@H]5CNC[C@@H]5F)n4)cnc3cn2)C1=O [Compound 61, 1-(3-(6-(((3S,4S)-4-fluoropyrrolidin-3-yl)amino)pyridin-2-yl)imidazo[1,2-a]pyrazin-6-yl)-3,3-dimethylpyrrolidin-2-one]
8 | 3430 | – | 238 | < 0.5 | CC1(C)CC(=O)N(c2cn3c(-c4cccc(N[C@H]5CNC[C@@H]5F)n4)cnc3cn2)C1 [Compound 63, 1-(3-(6-(((3S,4S)-4-fluoropyrrolidin-3-yl)amino)pyridin-2-yl)imidazo[1,2-a]pyrazin-6-yl)-4,4-dimethylpyrrolidin-2-one]
9 | 6020 | – | 4 | 1 | OC1(C(F)(F)F)CCN(c2cn3c(-c4cccc(N[C@H]5CNC[C@@H]5F)n4)cnc3cn2)C1 (stereo partly drawn) [Compound 66, 1-(3-(6-(((3S,4S)-4-fluoropyrrolidin-3-yl)amino)pyridin-2-yl)imidazo[1,2-a]pyrazin-6-yl)-3-(trifluoromethyl)pyrrolidin-3-ol]
10 | 8190 | – | 4 | 0.7 | F[C@H]1CNC[C@@H]1Nc1cccc(-c2cnc3cnc(N4CCC(F)(F)C4)cn23)n1 [Compound 67, 6-(6-(3,3-difluoropyrrolidin-1-yl)imidazo[1,2-a]pyrazin-3-yl)-N-((3S,4S)-4-fluoropyrrolidin-3-yl)pyridin-2-amine]
11 | 2030 | – | 15 | < 0.5 | c1cc(N[C@@H]2CCCNC2)nc(-c2cnc3cnccn23)c1 [Compound 69, (R)-6-(imidazo[1,2-a]pyrazin-3-yl)-N-(piperidin-3-yl)pyridin-2-amine]
12 | 696 | – | 20 | < 0.5 | F[C@H]1CCNC[C@@H]1Nc1cccc(-c2cnc3cnccn23)n1 [Compound 70, N-((3S,4S)-4-fluoropiperidin-3-yl)-6-(imidazo[1,2-a]pyrazin-3-yl)pyridin-2-amine]
13 | 966 | – | 2 | < 0.5 | c1cc(N[C@H]2CNCC23CC3)nc(-c2cnc3cnccn23)c1 [Compound 71, (R)-N-(6-(imidazo[1,2-a]pyrazin-3-yl)pyridin-2-yl)-5-azaspiro[2.4]heptan-7-amine]
14 | 4190 | – | 14 | < 0.5 | CC1(C)CNCC1Nc1cccc(-c2cnc3cnccn23)n1 (stereo not drawn) [Compound 72]
15 | 622 | – | 2 | < 0.5 | C[C@H]1CNC[C@@H]1Nc1cccc(-c2cnc3cnccn23)n1 [Compound 73, 6-(imidazo[1,2-a]pyrazin-3-yl)-N-((3R,4S)-4-methylpyrrolidin-3-yl)pyridin-2-amine]
16 | 4780 | – | 14 | < 0.5 | CC1(C)CCNCC1Nc1cccc(-c2cnc3cnccn23)n1 (stereo not drawn) [Compound 74, N-(4,4-dimethylpiperidin-3-yl)-6-(imidazo[1,2-a]pyrazin-3-yl)pyridin-2-amine]
17 | 165 | – | 2 | < 0.5 | CCOc1cn2c(-c3cccc(N[C@H]4CNC[C@@H]4F)n3)cnc2cn1 [compound 57, 6-(6-ethoxyimidazo[1,2-a]pyrazin-3-yl)-N-((3S,4S)-4-fluoropyrrolidin-3-yl)pyridin-2-amine]
18 | 7010 | – | 86 | < 0.5 | O=C1CC2(COC2)CN1c1cn2c(-c3cccc(N[C@H]4CNC[C@@H]4F)n3)cnc2cn1 [compound 62, 6-(3-(6-(((3S,4S)-4-fluoropyrrolidin-3-yl)amino)pyridin-2-yl)imidazo[1,2-a]pyrazin-6-yl)-2-oxa-6-azaspiro[3.4]octan-7-one]
